Data published in PubChem BioAssay (NCI).
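Each compound was tested at five concentrations against cells in 96-well plates for 48 hours. TGI marks complete inhibition of growth.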

Legend:
Assay in all cases: NCI anticancer screen, dose series, 48 h
[1] = tested on: NCI-H23 lung
[2] = tested on: SK-MEL-2 melanoma
[3] = tested on: SW-620 colon
[4] = tested on: K-562 leukemia
[5] = tested on: HOP-62 NSCLC
[6] = tested on: HT29 colon
[7] = tested on: A498 renal
[8] = tested on: MDA-MB-231 breast
[9] = tested on: 786-0 renal
[10] = tested on: HCC-2998 colon
[11] = tested on: MOLT-4 leukemia
[12] = tested on: UO-31 renal
[13] = tested on: UACC-257 melanoma
[14] = tested on: CCRF-CEM leukemia
[15] = tested on: MCF7 breast
[16] = tested on: OVCAR-3 ovarian
[17] = tested on: SR leukemia
[18] = tested on: SF-539 CNS
[19] = tested on: SF-295 CNS
[20] = tested on: SK-MEL-5 melanoma
[21] = tested on: OVCAR-8 ovarian
[22] = tested on: MDA-MB-435
[23] = tested on: SN12C renal
[24] = tested on: HCT-15 colon
[25] = tested on: COLO 205 colon
[26] = tested on: SK-OV-3 ovarian
[27] = tested on: U251 CNS
[28] = tested on: RXF 393 renal
[29] = tested on: MDA-N
[30] = tested on: OVCAR-4 ovarian
[31] = tested on: NCI-H522 lung
[32] = tested on: SK-MEL-28 melanoma
[33] = tested on: BT-549 breast
[34] = tested on: IGROV1 ovarian
[35] = tested on: KM12 colon
[36] = tested on: HCT-116 colon
[37] = tested on: OVCAR-5 ovarian
[38] = tested on: T-47D breast
[39] = tested on: HS 578T breast
[40] = tested on: SF-268 CNS
[41] = tested on: MALME-3M melanoma
[42] = tested on: M14 melanoma
[43] = tested on: TK-10 renal
[44] = tested on: NCI-H460 lung
[45] = tested on: HOP-92 NSCLC
[46] = tested on: NCI/ADR-RES ovarian
[47] = tested on: ACHN renal
[48] = tested on: A549 NSCLC
[49] = tested on: CAKI-1 renal
[50] = tested on: RPMI-8226 leukemia
[51] = tested on: DU-145 prostate
[52] = tested on: NCI-H226 lung
[53] = tested on: PC-3 prostate
[54] = tested on: UACC-62 melanoma
[55] = tested on: SNB-19 CNS
[56] = tested on: EKVX NSCLC
[57] = tested on: LOX IMVI melanoma
[58] = tested on: HL-60(TB) leukemia

With COc1ccc2c(c1)c1c(n2CCN2CCOCC2)-c2cccc(OC)c2CC1 the TGI [1] was > 100 µM, the TGI [2] was > 100 µM and the TGI [3] was > 100 µM. For the same molecule, the TGI [4] was > 100 µM, the TGI [5] was > 100 µM and the TGI [6] was 32.2 µM. The TGI [7] was > 100 µM, the TGI [8] was > 100 µM and the TGI [9] was > 100 µM. The TGI [10] was 63.4 µM, the TGI [11] was 76.7 µM and the TGI [12] was > 100 µM. For the same molecule, the TGI [13] was > 100 µM, the TGI [14] was 56.8 µM and the TGI [15] was 77.3 µM. The TGI [16] was > 100 µM, the TGI [17] was 35.3 µM and the TGI [18] was > 100 µM. The TGI [19] was > 100 µM, the TGI [20] was > 100 µM and the TGI [21] was > 100 µM. For the same molecule, the TGI [22] was > 100 µM, the TGI [23] was > 100 µM and the TGI [24] was > 100 µM. The TGI [25] was 28.5 µM, the TGI [26] was > 100 µM and the TGI [27] was > 100 µM. The TGI [28] was > 100 µM, the TGI [29] was > 100 µM and the TGI [30] was > 100 µM. The TGI [31] was 89 µM, the TGI [32] was > 100 µM and the TGI [33] was > 100 µM. For the same molecule, the TGI [34] was > 100 µM, the TGI [35] was 53.1 µM and the TGI [36] was > 100 µM. For the same molecule, the TGI [37] was > 100 µM, the TGI [38] was > 100 µM and the TGI [39] was > 100 µM. For the same molecule, the TGI [40] was > 100 µM, the TGI [41] was 66.3 µM and the TGI [42] was > 100 µM. The TGI [43] was > 100 µM, the TGI [44] was > 100 µM and the TGI [45] was > 100 µM. The TGI [46] was > 100 µM, the TGI [47] was > 100 µM and the TGI [48] was > 100 µM. The TGI [49] was > 100 µM, the TGI [50] was 68.1 µM and the TGI [51] was > 100 µM. For the same molecule, the TGI [52] was 52.9 µM, the TGI [53] was > 100 µM and the TGI [54] was > 100 µM.

For CCOC(=O)c1nc2ccccc2n(CC)c1=O, the TGI [1] was > 100 µM, the TGI [2] was > 100 µM and the TGI [3] was > 100 µM. For the same molecule, the TGI [4] was > 100 µM, the TGI [5] was > 100 µM and the TGI [6] was > 100 µM. For the same molecule, the TGI [55] was > 100 µM, the TGI [7] was > 100 µM and the TGI [8] was > 100 µM. For the same molecule, the TGI [10] was > 100 µM, the TGI [11] was > 100 µM and the TGI [12] was > 100 µM. For the same molecule, the TGI [13] was > 100 µM, the TGI [14] was > 100 µM and the TGI [15] was > 100 µM. For the same molecule, the TGI [16] was > 100 µM, the TGI [17] was > 100 µM and the TGI [18] was > 100 µM. For the same molecule, the TGI [19] was > 100 µM, the TGI [20] was > 100 µM and the TGI [21] was > 100 µM. For the same molecule, the TGI [22] was > 100 µM, the TGI [23] was > 100 µM and the TGI [24] was > 100 µM. The TGI [25] was > 100 µM, the TGI [26] was > 100 µM and the TGI [27] was > 100 µM. The TGI [28] was > 100 µM, the TGI [56] was > 100 µM and the TGI [29] was > 100 µM. The TGI [30] was > 100 µM, the TGI [31] was > 100 µM and the TGI [32] was > 100 µM. The TGI [33] was > 100 µM, the TGI [34] was > 100 µM and the TGI [35] was > 100 µM. The TGI [36] was > 100 µM, the TGI [37] was > 100 µM and the TGI [38] was > 100 µM. The TGI [39] was > 100 µM, the TGI [40] was > 100 µM and the TGI [41] was > 100 µM. The TGI [42] was > 100 µM, the TGI [43] was > 100 µM and the TGI [57] was > 100 µM. The TGI [44] was > 100 µM, the TGI [45] was > 100 µM and the TGI [46] was > 100 µM. The TGI [47] was > 100 µM, the TGI [58] was > 100 µM and the TGI [48] was > 100 µM. The TGI [49] was > 100 µM, the TGI [50] was > 100 µM and the TGI [51] was > 100 µM. The TGI [52] was > 100 µM, the TGI [53] was > 100 µM and the TGI [54] was > 100 µM.
